Values after ≈ are worked out from the molar mass of the structure shown. Where a SMILES comes first, the peptide text is derived from it.
Experiments:
Salmonella typhimurium = test: Antibacterial activity against Salmonella enterica serovar typhimurium C77-31 incubated for 18 to 24 hrs by broth microdilution method; assay type: functional, Salmonella enterica subsp. enterica serovar Typhimurium
Lipopolysaccharide (LPS) = test: Displacement of BODIPY-TR-cadaverine from Escherichia coli O111:B4 LPS assessed as increase in fluorescence intensity at 64 uM by spectrofluorophotometric method relative to control
Escherichia coli [1] = test: Antibacterial activity against Escherichia coli ATCC 25922 incubated for 18 to 24 hrs by broth microdilution method; assay type: functional
[2] = test system: Staphylococcus epidermidis; test: Antibacterial activity against Staphylococcus epidermidis ATCC 12228 incubated for 18 to 24 hrs by broth microdilution method; assay type: functional
Staphylococcus aureus [3] = test: Antibacterial activity against Staphylococcus aureus ATCC 29213 incubated for 18 to 24 hrs by broth microdilution method; assay type: functional
Escherichia coli [4] = test: Antibacterial activity against Escherichia coli UB1005 incubated for 18 to 24 hrs by broth microdilution method; assay type: functional
Escherichia coli [5] = test: Antibacterial activity against ciprofloxacin-resistant Escherichia coli ATCC 25922 incubated for 18 to 24 hrs; assay type: functional
Staphylococcus aureus [6] = test: Antibacterial activity against Staphylococcus aureus ATCC 25923 incubated for 18 to 24 hrs by broth microdilution method; assay type: functional
Staphylococcus aureus [7] = test: Antibacterial activity against Staphylococcus aureus 11011 incubated for 18 to 24 hrs by broth microdilution method; assay type: functional
Acinetobacter baumannii [8] = test: Antibacterial activity against Acinetobacter baumannii AB1902 clinical isolate incubated for 18 to 24 hrs by broth microdilution method; assay type: functional
[9] = Resistance index, ratio of MIC for antibacterial activity against ciprofloxacin-resistant Escherichia coli to MIC for Escherichia coli ATCC 25922 incubated for 18 to 24 hrs by broth microdilution method; assay type: functional
Pseudomonas aeruginosa = test: Antibacterial activity against Pseudomonas aeruginosa 25349 clinical isolate incubated for 18 to 24 hrs by broth microdilution method; assay type: functional
Acinetobacter baumannii [10] = test: Antibacterial activity against Acinetobacter baumannii AB1901 clinical isolate incubated for 18 to 24 hrs by broth microdilution method; assay type: functional
Escherichia coli [11] = test: Antibacterial activity against Escherichia coli 20411 clinical isolate incubated for 18 to 24 hrs by broth microdilution method; assay type: functional
[12] = Therapeutic index, ratio of MHC for human RBC to geometric mean of peptide MIC for Escherichia coli ATCC 25922; assay type: toxicity; details: pooled result: one value given for 6 cell lines, strains, targets or settings, read-out: TI
Erythrocyte = test: Haemolytic activity in human erythrocytes assessed as lowest concentration causing 5% hemolysis after 1 hr; assay type: ADME, cell-based
[13] = Cytotoxicity against mouse RAW264.7 cells assessed as cell survival at <= 32 uM after 24 hrs by MTT assay relative to control; assay type: cell-based; details: RAW264.7 cells, up to 32 µM, read-out: Activity
[14] = Salmonella enterica subsp. enterica serovar Typhimurium

Row | Compound | MIC (Salmonella typhimurium) | Activity (Lipopolysaccharide (LPS)) | MIC (Escherichia coli [1]) | MIC [2] | MIC (Staphylococcus aureus [3]) | MIC (Escherichia coli [4]) | MIC (Escherichia coli [5]) | MIC (Staphylococcus aureus [6]) | MIC (Staphylococcus aureus [7]) | MIC (Salmonella typhimurium; [14]) | MIC (Acinetobacter baumannii [8]) | Ratio [9] | MIC (Pseudomonas aeruginosa) | MIC (Acinetobacter baumannii [10]) | MIC (Escherichia coli [11]) | selectivity ratio [12] | MHC (Erythrocyte) | viability at 24 h [13]
1 | O=C(O)c1cn(C2CC2)c2cc(N3CCNCC3)c(F)cc2c1=O [CIPROFLOXACIN] | 4 µM (≈ 1.33 µg/mL) | 1.6% | 2 µM (≈ 0.663 µg/mL) | 0.5 µM (≈ 0.166 µg/mL) | 0.5 µM (≈ 0.166 µg/mL) | 2 µM (≈ 0.663 µg/mL) | 256 µM (≈ 84.8 µg/mL) | 0.5 µM (≈ 0.166 µg/mL) | 0.5 µM (≈ 0.166 µg/mL) |  |  |  |  |  |  |  |  | 
2 | COLISTIN |  |  | 0.5 µM | 64 µM | 128 µM | 0.5 µM | 0.5 µM | 128 µM | 32 µM | 0.5 µM | 0.5 µM | 1 | 0.5 µM | 1 µM | 0.5 µM |  |  | 
3 | GENTAMICIN |  |  | 4 µM | 0.5 µM | 0.5 µM | 4 µM | 4 µM | 0.25 µM | 1 µM | 8 µM | > 128 µM | 1 | 2 µM | > 128 µM | 1 µM |  |  | 
4 | CCn1cc(C(=O)O)c(=O)c2cc(F)c(N3CCNCC3)cc21 [NORFLOXACIN] | 0.25 µM (≈ 0.0798 µg/mL) |  | 0.125 µM (≈ 0.0399 µg/mL) | 1 µM (≈ 0.319 µg/mL) | 1 µM (≈ 0.319 µg/mL) | 4 µM (≈ 1.28 µg/mL) | 1 µM (≈ 0.319 µg/mL) | 2 µM (≈ 0.639 µg/mL) | 2 µM (≈ 0.639 µg/mL) |  | > 128 µM |  | 2 µM (≈ 0.639 µg/mL) | > 128 µM | 0.0625 µM (≈ 0.02 µg/mL) |  |  | 
5 | CN(C)c1ccc(O)c2c1C[C@H]1C[C@H]3[C@H](N(C)C)C(O)=C(C(N)=O)C(=O)[C@@]3(O)C(O)=C1C2=O [MINOCYCLINE] | 8 µM (≈ 3.66 µg/mL) |  | 1 µM (≈ 0.457 µg/mL) | 0.25 µM (≈ 0.114 µg/mL) | 0.25 µM (≈ 0.114 µg/mL) | 4 µM (≈ 1.83 µg/mL) | 64 µM (≈ 29.3 µg/mL) | 0.25 µM (≈ 0.114 µg/mL) | 0.25 µM (≈ 0.114 µg/mL) |  | 0.25 µM (≈ 0.114 µg/mL) | 64 | 8 µM (≈ 3.66 µg/mL) | 0.25 µM (≈ 0.114 µg/mL) | 2 µM (≈ 0.915 µg/mL) |  |  | 
6 | CO[C@H]1/C=C/O[C@@]2(C)Oc3c(C)c(O)c4c(O)c(c(/C=N/N5CCN(C)CC5)c(O)c4c3C2=O)NC(=O)/C(C)=C\C=C\[C@H](C)[C@H](O)[C@@H](C)[C@@H](O)[C@@H](C)[C@H](OC(C)=O)[C@@H]1C [RIFAMPIN] | 4 µM (≈ 3.29 µg/mL) |  | 4 µM (≈ 3.29 µg/mL) | 0.25 µM (≈ 0.206 µg/mL) | 0.25 µM (≈ 0.206 µg/mL) | 8 µM (≈ 6.58 µg/mL) | 8 µM (≈ 6.58 µg/mL) | 0.25 µM (≈ 0.206 µg/mL) |  |  | 1 µM (≈ 0.823 µg/mL) | 2 | 16 µM (≈ 13.2 µg/mL) | 1 µM (≈ 0.823 µg/mL) | 4 µM (≈ 3.29 µg/mL) |  |  | 
7 | CC(C)C[C@H](NC(=O)[C@H](CCCNC(=N)N)NC(=O)[C@H](CC(C)C)NC(=O)[C@H](CCCNC(=N)N)NC(=O)[C@@H](NC(=O)[C@H](CCCCN)NC(=O)[C@H](CC(C)C)NC(=O)[C@H](CCCNC(=N)N)NC(=O)[C@H](CC(C)C)NC(=O)[C@H](CCCNC(=N)N)NC(=O)[C@@H](N)CC(C)C)[C@@H](C)O)C(=O)N[C@@H](CCCCN)C(N)=O (H-LRLRLKTRLRLK-NH2) | 16 µM (≈ 25 µg/mL) |  | 4 µM (≈ 6.26 µg/mL) | 64 µM (≈ 100 µg/mL) | 32 µM (≈ 50.1 µg/mL) | 4 µM (≈ 6.26 µg/mL) |  | 32 µM (≈ 50.1 µg/mL) |  |  |  |  |  |  |  | 16 | > 128 µM | ≥ 70%
8 | CC(C)(O/N=C(\C(=O)N[C@@H]1C(=O)N2C(C(=O)[O-])=C(C[n+]3ccccc3)CS[C@H]12)c1csc(N)n1)C(=O)O [CEFTAZIDIME] | 0.5 µM (≈ 0.273 µg/mL) |  | 0.5 µM (≈ 0.273 µg/mL) | 16 µM (≈ 8.75 µg/mL) | 16 µM (≈ 8.75 µg/mL) | 0.25 µM (≈ 0.137 µg/mL) | 16 µM (≈ 8.75 µg/mL) | 32 µM (≈ 17.5 µg/mL) | 16 µM (≈ 8.75 µg/mL) |  | > 128 µM | 32 | 32 µM (≈ 17.5 µg/mL) | > 128 µM | 0.25 µM (≈ 0.137 µg/mL) |  |  | 
9 | CC1COc2c(N3CCN(C)CC3)c(F)cc3c(=O)c(C(=O)O)cn1c23 (configuration not stated) [OFLOXACIN] | 0.25 µM (≈ 0.0903 µg/mL) |  | 0.125 µM (≈ 0.0452 µg/mL) | 0.5 µM (≈ 0.181 µg/mL) | 0.5 µM (≈ 0.181 µg/mL) | 0.5 µM (≈ 0.181 µg/mL) | 0.5 µM (≈ 0.181 µg/mL) | 1 µM (≈ 0.361 µg/mL) | 1 µM (≈ 0.361 µg/mL) |  | 32 µM (≈ 11.6 µg/mL) | 4 | 4 µM (≈ 1.45 µg/mL) | 32 µM (≈ 11.6 µg/mL) | 0.125 µM (≈ 0.0452 µg/mL) |  |  | 
